pIC50: −log10 of the molar value. Converted amounts (≈) assume the structure as drawn. “And” between values parts separate entries of the source, which are not always exact repeats. Identical values can stand only once. The source made the active and inactive calls. The rule behind the calls is not given here.
Key:
[1] = tested on: Mycobacterium tuberculosis; assay: Antibacterial activity against Mycobacterium tuberculosis H37Rv assessed as inhibition of bacterial growth by microplate alamar blue assay; type: functional
[2] = Inhibition of Mycobacterium tuberculosis salicylate synthase using chorismic acid as substrate in presence of MgCl2 by fluorimetric assay
RAW264.7 = assay: Cytotoxicity against mouse RAW264.7 cells assessed as cell growth inhibition by MTT assay relative to control; type: functional
[3] = tested on: Mycobacterium tuberculosis; assay: Antibacterial activity against drug-sensitive Mycobacterium tuberculosis assessed as inhibition of bacterial growth; type: functional
[4] = tested on: Mycobacterium tuberculosis; assay: Antibacterial activity against Mycobacterium tuberculosis H37Rv ATCC 27294 assessed as inhibition of bacterial growth; type: functional
[5] = molecular target: T1, Enoyl-[acyl-carrier-protein] reductase [NADH] (Mycobacterium tuberculosis, UniProt P9WGR1); assay: Inhibition of Mycobacterium tuberculosis InhA
T1 sequence (P9WGR1 whole entry): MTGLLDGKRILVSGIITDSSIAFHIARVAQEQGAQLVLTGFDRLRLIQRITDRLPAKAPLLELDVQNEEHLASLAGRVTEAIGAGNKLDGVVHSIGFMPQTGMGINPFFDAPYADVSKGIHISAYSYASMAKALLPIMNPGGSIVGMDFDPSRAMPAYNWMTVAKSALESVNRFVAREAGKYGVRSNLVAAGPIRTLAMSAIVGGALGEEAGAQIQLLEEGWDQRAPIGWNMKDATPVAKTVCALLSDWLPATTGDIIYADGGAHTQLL

[6] = tested on: Mycobacterium tuberculosis; assay: Antibacterial activity against Mycobacterium tuberculosis H37Ra assessed as inhibition of bacterial growth; type: functional
Pantothenate synthetase = molecular target: T2, Pantothenate synthetase (Mycobacterium tuberculosis, UniProt P9WIL5); assay: Inhibition of Mycobacterium tuberculosis H37Ra pantothenate synthetase
T2 sequence (P9WIL5 whole entry): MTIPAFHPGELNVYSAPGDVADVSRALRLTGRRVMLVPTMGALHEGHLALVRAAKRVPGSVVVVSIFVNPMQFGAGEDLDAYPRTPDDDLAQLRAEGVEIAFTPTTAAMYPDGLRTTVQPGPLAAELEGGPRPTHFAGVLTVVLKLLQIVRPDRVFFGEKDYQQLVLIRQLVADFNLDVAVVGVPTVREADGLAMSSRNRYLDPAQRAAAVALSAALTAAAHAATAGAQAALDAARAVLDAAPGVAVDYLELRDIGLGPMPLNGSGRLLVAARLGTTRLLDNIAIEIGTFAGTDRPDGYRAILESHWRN

[7] = tested on: Mycobacterium tuberculosis; assay: Antibacterial activity against Mycobacterium tuberculosis H37Rv assessed as inhibition of bacterial growth by resazurin dye based colorimetric analysis; type: functional, organism-based
[8] = Microsomal stability in human liver microsomes assessed as half life at 0.1 uM incubated for 60 mins in presence of NADPH by LC-MS/MS analysis; type: ADME, Microsome
[9] = tested on: Mycobacterium tuberculosis; assay: Antibacterial activity against Mycobacterium tuberculosis H37Rv assessed as inhibition of bacterial growth; type: functional, organism-based
[10] = tested on: Mycobacterium tuberculosis; assay: Antibacterial activity against Mycobacterium tuberculosis assessed as inhibition of bacterial growth by microplate alamar blue assay; type: functional
[11] = Cytotoxicity against human WI-38 cells assessed as inhibition of cell growth by MTT assay; type: toxicity, cell-based
[12] = tested on: Mycobacterium tuberculosis; assay: Antibacterial activity against drug susceptible Mycobacterium tuberculosis H37Rv assessed as inhibition of bacterial growth; type: functional
[13] = tested on: Mycobacterium tuberculosis; assay: Antibacterial activity against Mycobacterium tuberculosis assessed as inhibition of bacterial growth; type: functional, organism-based
Thymidylate kinase = molecular target: T3, Thymidylate kinase (Mycobacterium tuberculosis, UniProt P9WKE1); assay: Inhibition of Mycobacterium tuberculosis TMPK
T3 sequence (P9WKE1 whole entry): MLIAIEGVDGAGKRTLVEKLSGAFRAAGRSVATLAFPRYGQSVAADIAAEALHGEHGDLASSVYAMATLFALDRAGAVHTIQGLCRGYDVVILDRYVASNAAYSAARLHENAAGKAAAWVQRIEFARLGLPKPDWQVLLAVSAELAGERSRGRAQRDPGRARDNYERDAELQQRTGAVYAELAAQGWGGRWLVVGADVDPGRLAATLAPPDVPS

[14] = tested on: Mycobacterium tuberculosis; assay: Inhibition of Mycobacterium tuberculosis H37Rv mc2 6206 HadB/C expressed in Escherichia coli using trans-2-hexadecenoyl-coenzyme A as substrate by spectrophotometric analysis
[15] = Inhibition of Mycobacterium tuberculosis H37Rv mc2 6206 HadA/B expressed in Escherichia coli using trans-2-hexadecenoyl-coenzyme A as substrate by spectrophotometric analysis
[16] = tested on: Mycobacterium tuberculosis; assay: Antibacterial activity against Mycobacterium tuberculosis H37Rv assessed as bacterial growth inhibition at less than 6.25 ug/ml relative to control; type: functional; conditions: read-out: GI
[17] = Cytotoxicity against African green monkey Vero cells assessed as inhibition of cell growth; type: toxicity, cell-based; conditions: African green monkey (Chlorocebus sabaeus)
[18] = tested on: Mycobacterium tuberculosis; assay: Antibacterial activity against Mycobacterium tuberculosis H37Rv infected in Macrophage assessed as reduction in bacterial growth; type: functional
[19] = Selectivity index, ratio of IC50 for cytotoxicity against African green monkey Vero cells to MIC for antibacterial activity against Mycobacterium tuberculosis H37Rv; type: toxicity, cell-based; conditions: read-out: Selectivity Index
[20] = tested on: Mycobacterium tuberculosis; assay: Antibacterial activity against wild-type Mycobacterium tuberculosis H37Rv assessed as inhibition of bacterial growth; type: functional
[21] = tested on: Mycobacterium tuberculosis; assay: Antibacterial activity against Mycobacterium tuberculosis H37Rv assessed as inhibition of bacterial growth by broth microdilution assay; type: functional
Staphylococcus aureus = assay: Antibacterial activity against methicillin-resistant Staphylococcus aureus 693E assessed as inhibition of bacterial growth by broth microdilution assay; type: functional
DNA gyrase = DNA gyrase (Escherichia coli, UniProt P0AES4+P0AES6); assay: Inhibition of Escherichia coli DNA gyrase; type: protein-complex assay

CCOC(=O)C1=C(C)NC(=O)NC1c1ccccc1OCc1cn(CC(=O)c2ccc(Cl)cc2)nn1 (stereo not drawn)
MIC [1]: 6.13 µM

O=C(/C=C/c1ccccc1)c1ccc(Br)cc1
MIC [1]: 6.25 µg/mL

N#Cc1cc(OCCOc2ccccc2)cc(-c2ccc(C(=O)O)o2)c1
pIC50 [2]: 4.92

CN1CCN(C(=O)c2cc3ccccc3[nH]2)CC1
MIC [1]: 3.12 µg/mL
growth inhibition (GI) (RAW264.7): 32%

O=c1/c(=C\c2ccc(Cl)cc2)sc2n1CN(C1=NS(=O)(=O)c3ccccc31)CN=2
MIC [3]: 2.28 µg/mL (≈ 5.12 µM)

O=C(/C=C/c1cccc(Oc2ccccc2)c1)c1ccc(Br)cc1
MIC [1]: 6.25 µg/mL

O=C1Nc2ccccc2/C1=N\OCc1cn(Cc2ccc(F)cc2)nn1
MIC [4]: 0.78 µg/mL (≈ 2.22 µM)

CCOC(=O)Cc1csc(N2C(=O)CSC2c2ccc(OC)cc2)n1 (stereo not drawn)
MIC [3]: 0.12 µg/mL (≈ 0.317 µM)
pIC50 [5]: 5.89

Cc1nc2sc3ccccc3n2c1C(=O)N1CCN(Cc2cn(-c3ccc(Cl)cc3Cl)nn2)CC1
IC90 [6]: 15200 nM
pIC50 (Pantothenate synthetase): 5.69
IC50 [7]: 1.6 µg/mL (≈ 3.04 µM)

CC(=O)c1c(C)n(-c2ccc(-c3ccccc3)cc2)c2ccc(O)c(CN3CCCCC3)c12
MIC [1]: 0.063 µg/mL
half-life at 0.1 µM [8]: 20.7 min

Cc1cc(C(=O)N2CCN(c3nc(=O)c4cc(Cl)cc([N+](=O)[O-])c4s3)CC2)c2cc(Cl)ccc2n1
MIC [9]: 0.06 µg/mL

O=C(/C=C/c1ccccc1[N+](=O)[O-])c1ccc(Br)cc1
MIC [1]: 6.25 µg/mL

Cc1cc(C(=O)N2CCN(c3nc(=O)c4cc(F)cc([N+](=O)[O-])c4s3)CC2)c2cc(Br)ccc2n1
MIC [9]: 0.06 µg/mL

O=C(N/N=C1\C(=O)N(Cc2ccccc2)c2ccccc21)c1cnc2cc(Cl)ccc2c1O
MIC [10]: 0.06 µg/mL (≈ 0.131 µM)
pIC50 [11]: 4.44

CC(C)(C)OC(=O)N1CCN(c2ccc(N3C[C@H](CNC(=O)c4ccc([N+](=O)[O-])o4)OC3=O)cc2F)CC1
MIC [9]: 2.34 µg/mL

Cc1cc(C(=O)N2CCN(c3nc(=O)c4cc(C(F)(F)F)cc([N+](=O)[O-])c4s3)CC2)c2cc(Br)ccc2n1
MIC [9]: 0.12 µg/mL

CC[C@@H](CO)NCCN[C@@H](CC)CO [ETHAMBUTOL]
MIC [1]: 7.64 µM and 1.6 µg/mL

CCOC(=O)Cc1csc(N2C(=O)CSC2c2ccc(Br)cc2)n1 (stereo not drawn)
MIC [3]: 0.48 µg/mL (≈ 1.12 µM)
pIC50 [5]: 5.97

CCCCCCc1ccc(-c2cn(CC(=O)Cn3ccnc3[N+](=O)[O-])nn2)cc1
MIC [9]: 65.3 µM

COC(=O)c1cc(-c2ccc(OC)c(NC(=O)c3cc(-c4cccc(Cl)c4)nc4ccccc34)c2)on1
MIC [12]: 0.12 µg/mL (≈ 0.233 µM)

O=C(/C=C/c1cc(Cl)ccc1O)c1ccc(Br)cc1
MIC [1]: 6.25 µg/mL

CC(=O)c1ccc(N2CN=c3s/c(=C/c4ccco4)c(=O)n3C2)cc1
MIC [3]: 2.49 µg/mL (≈ 7.05 µM)

CC(=O)c1c(C)n(-c2ccc(C3CCNCC3)cc2)c2ccc(O)c(CN3CCCCC3)c12
MIC [1]: 0.125 µg/mL
half-life at 0.1 µM [8]: 58 min

COc1ccc(NC(=O)CCCCCN/C(C)=C2/C(=O)C=C3Oc4c(C(C)=O)c(O)c(C)c(O)c4[C@]3(C)C2=O)cc1OC
MIC [9]: 5.3 µM

O=C1C(Cl)=C(Cl)C2(OC(c3c(Cl)cccc3Cl)=NN2c2ccccc2)c2ccccc21 (stereo not drawn)
MIC [9]: 15.6 µg/mL

CS(=O)(=O)N1CCN(c2ccc(N3C[C@H](CNC(=O)c4ccc([N+](=O)[O-])o4)OC3=O)cc2F)CC1
MIC [9]: 1.1 µg/mL

Cc1cc(C(=O)N2CCN(c3nc(=O)c4cc(Br)cc([N+](=O)[O-])c4s3)CC2)c2cc(Cl)ccc2n1
MIC [9]: 0.12 µg/mL

O=C(Nc1ccc(C(=O)O)c(O)c1)c1cncc(Cl)n1
MIC [9]: 3.13 µg/mL

NNC(=O)c1ccncc1 [ISONIAZID]
MIC [9]: 15.6 µg/mL
MIC [1]: 1.6 µg/mL
IC50 [7]: 1.6 µg/mL (≈ 11.7 µM)

Cc1ccc(C(=O)C2[C@H]3CCCN3[C@]3(C(=O)Nc4ccccc43)C23c2ccccc2-n2c3nc3ccccc3c2=O)cc1 (stereo partly drawn)
MIC [9]: 1.56 µg/mL

Cc1cc(N=Nc2ccc(O)cc2O)ccc1C(C)C
pIC50 [13]: 6.21

Cc1nc2cc(C(F)(F)F)ccc2n1-c1ncc(C(F)(F)F)s1
MIC [9]: 0.28 µM

Cc1cn([C@H]2C[C@H](O)[C@@H](COP(=O)(O)O)O2)c(=O)[nH]c1=O [THYMIDINE MONOPHOSPHATE]
pIC50 (Thymidylate kinase): 7.15

C/C(=N\N=C(\N/N=C(\C)c1ccc(Cl)cc1)NC(=S)Nc1cccc2ccccc12)c1ccc(Cl)cc1
MIC [9]: 0.78 µM

COc1ccc(-c2nn(-c3ccc([N+](=O)[O-])cc3[N+](=O)[O-])c(N)c2C#N)cc1Oc1cccc(Br)c1C#N
MIC [3]: 0.98 µg/mL (≈ 1.7 µM)
pIC50 [5]: 6.54

Cc1cc(C(=O)N2CCN(c3nc(=O)c4cc(C(F)(F)F)cc([N+](=O)[O-])c4s3)CC2)c2cc(Cl)ccc2n1
MIC [9]: 0.12 µg/mL

CS(=O)(=O)NC(=O)CCc1cn(-c2ccc(Br)cc2)nc1-c1ccc(Cl)cc1
inhibition [14]: inactive
pIC50 [15]: 6.89

O=C(c1ccc(Cl)cc1)C1[C@H]2CCCN2[C@]2(C(=O)Nc3ccc(Cl)cc32)C12c1ccccc1-n1c2nc2ccccc2c1=O (stereo partly drawn)
MIC [9]: 1.56 µg/mL

C[C@H]1S[C@]2(CC[C@@H](c3ccccc3)CC2)N(NC(=O)[C@@H](O)c2ccccc2)C1=O
MIC [9]: < 6.25 µg/mL
inhibition of growth at 6.25 µg/mL [16]: 98%

O=C1C(C#Cc2ccccc2)=C(c2ccc(C(F)(F)F)cc2)C(=O)N1Cc1ccccn1
MIC [9]: 0.92 µg/mL
IC50 [17]: > 64 µg/mL
Activity [18]: 0.47 log10CFU
selectivity ratio [19]: 69.6

CO[C@H]1/C=C/O[C@@]2(C)Oc3c(C)c(O)c4c(O)c(c(/C=N/N5CCN(C)CC5)c(O)c4c3C2=O)NC(=O)/C(C)=C\C=C\[C@H](C)[C@H](O)[C@@H](C)[C@@H](O)[C@@H](C)[C@H](OC(C)=O)[C@@H]1C [RIFAMPIN]
MIC [9]: 0.97 µg/mL

CC(C)/N=c1\cc2n(-c3ccccc3)c3ccccc3nc-2cc1Nc1ccc(N2CCN(C)CC2)c(F)c1
MIC [9]: 0.625 µg/mL
MIC [20]: 0.08 µg/mL (≈ 0.154 µM)

CO[C@H]1C[C@@]2(C)C=C[C@H]3[C@H]4O[C@]2(/C(C)=C/[C@@H](C)[C@@H]([C@@H](C)O)OC1=O)[C@@H]3[C@H](O)[C@@H](C)[C@H]4OC(=O)c1ccc[nH]1
MIC [21]: 12.5 µM (≈ 6.62 µg/mL)
MIC (Staphylococcus aureus): 0.6 µM (≈ 0.318 µg/mL)

CC(=O)NC[C@H]1CN(c2ccc(N3CCOCC3)c(F)c2)C(=O)O1 [LINEZOLID]
MIC [9]: 1 µg/mL

Cc1cc(C(=O)N2CCN(c3nc(=O)c4cc(Cl)cc([N+](=O)[O-])c4s3)CC2)c2cc(Br)ccc2n1
MIC [9]: 0.06 µg/mL

Clc1ccc(Cn2cc(COc3ccc(C4=NCCO4)cc3)nn2)cc1
pIC50 [9]: 5.80
pIC50 (DNA gyrase): 7.08

Cc1cc(C(=O)N2CCN(c3nc(=O)c4cc(Br)cc([N+](=O)[O-])c4s3)CC2)c2cc(Br)ccc2n1
MIC [9]: 0.12 µg/mL

C/C(=N\NC(=S)Nc1cccc(Cl)c1Cl)c1nc2cc([N+](=O)[O-])ccc2[nH]1
MIC [9]: 62.5 µg/mL

CC1/C(=N\NC(N)=[Se])Nc2ccccc21 (stereo not drawn)
MIC [1]: 1.6 µg/mL

Source: ChEMBL document CHEMBL5365393, “Comprehensive coverage on anti-mycobacterial endeavour reported during 2022” (Eur J Med Chem, 2023)
